Measurements: patent US9598349B2, “Quinone based nitric oxide donating compounds for ophthalmic use” (NICOX SCIENCE IRELAND, priority 2013, dated 2017)
Read-outs that look alike come from different tables or passages of the source.

Experiments:
[1] = test system: lipidic peroxidation of membrane lipids in rat hepatic microsomes; test: In vitro antioxidant activity (TBARS test); assay type: biochemical; conditions: read-out: Antioxidant activity IC50 μM (CL 95%)
Method: The antioxidant properties of compound (1) (example 1), its precursors (3-methyl-3-(2,4,5-trimethyl-3,6-dioxocyclohexa-1,4-dien-1-yl)butanoic acid, described in Example 1 Step 2 (Intermediate 2) and reference antioxidant compounds were assessed after NADPH-induced lipidic peroxidation of membrane lipids in rat hepatic microsomes using the detection of 2-thiobarbituric acid reactive substances (TBARS) by visible spectroscopy.
Hepatic microsomal membranes from male Wistar rats (200-250 g) were prepared by differential centrifugation (8000 g, 20 min; 120000 g, 1 h) in a HEPES/sucrose buffer (10 mM, 250 mM, pH 7.4) and stored at −80° C. Incubation was performed at 37° C. in a Tris-HCl/KCl (100 mM/150 mM, pH 7.4) containing microsomal membranes (2 mg prot/mL), sodium ascorbate (100 μM), and DMSO solutions of the tested compounds.
Lipid peroxidation was initiated by adding ADP-FeCl3 and NADPH (Method A) or 2.5 μM FeSO4 (Method B) (as described by Boschi D. et al., J. Med. Chem. 2006, 49:2886-2897). Aliquots were taken from the incubation mixture at 5, 15, and 30 min and treated with trichloroacetic acid (TCA) 10% w/v.
Lipid peroxidation was assessed by spectrophotometric (543 nm) determination of the TBARS consisting mainly of malondialdehyde (MDA). TBARS concentrations (expressed in nmol/mg protein) were obtained by interpolation with a MDA standard curve. The antioxidant activity of tested compounds was evaluated as the percent inhibition of TBARS production with respect to control samples, using the values obtained after 30 min of incubation. IC50 values were calculated by nonlinear regression analysis.

[2] = test system: hypertonic saline-induced IOP increase; test: IOP lowering activity in hypertonic saline-induced IOP increase in rabbits (Example 11); assay type: in vivo, New Zealand White rabbits
Method: The Intraocular pressure (IOP) lowering activity of compound (1) (Example 1) was assessed in an animal model of elevated IOP.
(§1) Adults male New Zealand White rabbits weighting 1.8-2.0 Kg were used in the experiments.
(§2) Animals were anesthetized using 20 mg/ml/kg of sodium pentobarbital. The increase in IOP was induced by the injection of 0.1 ml of hypertonic saline solution (5%) into the vitreous bilaterally (Krauss et al., 2011, Orihashi et al., 2005).
IOP was measured using a Tono-Pen XL prior to hypertonic saline injection (basal) and at 30, 60, 90, 120, 240 and 360 min thereafter. Vehicle (5% cremophor-EL; 0.3% DMSO; 0.2 mg/ml Benzalkonium chloride (bac) in PBS pH 6.0,) or compound of the invention were instilled as eye drops immediately after hypertonic saline injection. Eyes were randomly assigned to different treatment groups. Vehicle or compounds of the invention were directly instilled into the conjunctiva pocket at the desired doses. One drop of 0.2% oxybuprocaine hydrochloride (Novesine, Sandoz) diluted 1:1 with saline was instilled in each eye immediately before each set of pressure measurements.
Results are reported in Table 2 in which the ocular hypotensive activity of compound (1) is expressed as mean average of IOP measurements at 60 and 120 minutes following topical administration.

[3] = test system: hypertonic saline-induced IOP increase; test: IOP lowering activity in hypertonic saline-induced IOP increase in rabbits, two concentrations (Example 16); assay type: in vivo, New Zealand White rabbits; conditions: for IOP change (mmHg): versus vehicle and versus basal IOP
Method: The present study evaluated the intraocular pressure lowering effect of single applications of two different concentrations (1% and 0.3%) of compound (1) in rabbits with experimental increase in IOP.
as §1
The transient increase in IOP was induced by the injection of 0.1 ml of hypertonic saline solution (5%) into the vitreous bilaterally (Krauss et al., 2011, Orihashi et al., 2005).
IOP was measured using a Tono-Pen XL prior to hypertonic saline injection (basal) and at 30, 60, 120 and 240 min thereafter. Vehicle (5% cremophor-EL; 0.3% DMSO; 0.2 mg/ml Benzalkonium chloride in PBS pH 6.0) or compound was instilled as eye drops immediately after hypertonic saline injection. Eyes were randomly assigned to different treatment groups. Vehicle and compound were directly instilled into the conjunctiva pocket at the desired doses. One drop of 0.4% oxybuprocaine hydrochloride (Novesine, Sandoz) was instilled in each eye immediately before each set of pressure measurements.
Results are reported in Table 3 and they are expressed as IOP change (at 60 and 120 minutes following topical administration) versus vehicle and versus IOP at basal before hypertonic saline injection.

[4] = test system: hypertonic saline-induced IOP increase; test: IOP lowering activity in hypertonic saline-induced IOP increase in rabbits, versus ISMN (Example 17); assay type: in vivo, New Zealand White rabbits; conditions: for IOP change (mmHg): dose 1%, versus vehicle and versus basal IOP
Method: The present study evaluated the intraocular pressure lowering effect of single application of compound (15) (Example 12) and of ISMN (isosorbide-5-mononitrate) used as reference compound, in an animal model of elevated IOP.
as §1, §2
IOP was measured using a Tono-Pen XL prior to hypertonic saline injection (basal) and at 30, 60, 90, 120, 240 and 360 min thereafter. Vehicle (5% cremophor-EL; 0.3% DMSO; 0.2 mg/ml Benzalkonium chloride in PBS pH 6.0,) or tested compound was instilled as eye drops immediately after hypertonic saline injection. Eyes were randomly assigned to different treatment groups. Vehicle or compounds were directly instilled into the conjunctiva pocket at the desired doses. One drop of 0.2% oxybuprocaine hydrochloride (Novesine, Sandoz) diluted 1:1 with saline was instilled in each eye immediately before each set of pressure measurements.
Results are reported in Table 4 and they are expressed as IOP change (at 30 and 60 minutes following topical administration) versus vehicle and versus IOP at basal before hypertonic saline injection.

[5] = test system: lipidic peroxidation of membrane lipids in rat hepatic microsomes; conditions: Method B; values from Chegaev et al. (footnotes b, c); read-out: Antioxidant activity IC50 μM (CL 95%); cited from earlier work
[6] = Method A: lipid peroxidation induced by ADP-FeCl3 and NADPH, inhibition of TBARS production after 30 min incubation at 37° C.

O=C(O)/C=C/c1ccc(O)c(O)c1 [Caffeic acid, reference compound]
IC50 ([1]; Method B: lipid peroxidation induced by FeSO4 and ascorbic acid, inhibition of TBARS production after 30 min incubation at 37° C.): 33 µM

CC1=C(C)C(=O)C(C(C)(C)CC(=O)OCCCCO[N+](=O)[O-])=C(C)C1=O [Compound (1), 4-(nitrooxy)butyl 3-methyl-3-(2,4,5-trimethyl-3,6-dioxocyclohexa-1,4-dienyl)butanoate]
IOP (mmHg) ([2]; 60 minutes following topical administration (eye drops)): 29 ± 7.8 mmHg | IOP (mmHg) ([2]; 120 minutes following topical administration (eye drops)): 18.9 ± 4.1 mmHg | IOP change (mmHg) ([3]; dose 0.3%, 60 minutes): −5.5 ± 3.1 mmHg | IOP change (mmHg) ([3]; dose 0.3%, 120 minutes): −5.7 ± 2.1 mmHg | IOP change (mmHg) ([3]; dose 1%, 60 minutes): −9.1 ± 3.4 mmHg | IOP change (mmHg) ([3]; dose 1%, 120 minutes): −9.5 ± 2.2 mmHg | IOP reduction (in words) ([3]; single application, both doses (1% and 0.3%)): significant IOP reduction | IC50 [1, 6]: 28 µM

CC1=C(C)C(=O)C(C(C)(C)CC(=O)OCCCC[C@@H](CO[N+](=O)[O-])O[N+](=O)[O-])=C(C)C1=O [Compound (15), (S)-5,6-bis(nitrooxy)hexyl 3-methyl-3-(2,4,5-trimethyl-3,6-dioxocyclohexa-1,4-dienyl)butanoate]
IOP change (mmHg) ([4]; 30 minutes): −6.5 ± 2.6 mmHg | IOP change (mmHg) ([4]; 60 minutes): −4.9 ± 2.4 mmHg | IOP reduction compared to ISMN (in words) ([4]; single application, 1%): significantly higher IOP reduction as compared to ISMN treated group

CC1=NN(c2ccccc2)C(=O)C1 [Edavarone]
IC50 [5]: 17 µM

COc1cc(/C=C/C(=O)O)ccc1O [Ferulic acid, reference compound]
IC50 ([1]; Method B, footnote a: tested at 1 mM concentration): 50.5 ± 0.4 µM

O=[N+]([O-])O[C@@H]1CO[C@H]2[C@@H]1OC[C@@H]2O [ISMN, isosorbide-5-mononitrate, reference compound]
IOP change (mmHg) ([4]; 30 minutes): −2.6 ± 3.5 mmHg | IOP change (mmHg) ([4]; 60 minutes): −0.7 ± 2.9 mmHg

CC1=C(C)C(=O)C(C(C)(C)CC(=O)O)=C(C)C1=O [Intermediate 2, 3-methyl-3-(2,4,5-trimethyl-3,6-dioxocyclohexa-1,4-dien-1-yl)butanoic acid]
IC50 [1, 6]: 157 µM

COc1ccc2[nH]cc(CCNC(C)=O)c2c1 [Melatonin]
IC50 [5]: 476 µM
